Results: the NIST ThermoML archive (doi:10.1016/j.tca.2016.01.009)
± gives the expanded uncertainty stated by the source.

Conditions: Crystal; visual observation

Normal melting temperature: 78.70 ± 0.48 °C
Compound: OCc1cn(Cc2ccccc2)nn1 [(1-benzyl-1H-1,2,3-triazol-4-yl)methanol]
